Test results published in patent US20240408175A1, “BMP9 OR AN AGONIST THEREOF AND ITS USES RELATED TO REDUCING METASTASIS OF CANCER” (THE UAB RESEARCH FOUNDATION, priority 2021, published 2024).
Each block holds one molecule with its values, some of them ahead of it. Residues, ends and D or L forms follow the SMILES beside them. *: point of attachment. Cbz = O=C(OCc1ccccc1)*

How the values were obtained:
[1] = test system: SOX2; assay: SOX2 expression by Western blot / qRT-PCR in cancer cells; format: cell-based, human; conditions: for SOX2 protein and mRNA expression: attached and anchorage-independent conditions; for recovery in SOX2 repression by BMP2: PA1, 1 h pretreatment (5 μM DM, 3 μM ML347); for recovery in SOX2 repression by BMP2 / effect on SOX2 repression by BMP2: then BMP2 24 h; for effect on SOX2 repression by BMP9: 1 h pretreatment (5 μM SB431542, 3 μM ML347, 0.8 μM LDN193189), then BMP9 24 hours; for effect on SOX2 repression by BMP2: PA1, 1 h pretreatment (5 μM SB431542, 0.8 μM LDN193189); for SOX2 protein and RNA levels: 10 nM, 24 hours, PA1 (and OVCAR3) cells
Description: Lysate and RNA preparation: 100,000-300,000 cells were seeded in a poly-HEMA coated 6-well plate for indicated times in full serum unless indicated otherwise. Cells were collected by centrifugation and lysed with trizol for RNA extraction or direct 2× lysis buffer for protein lysates.
Xenograft data were analyzed using parametric statistics as described in the legends. Survival curves were analyzed with log-rank statistics. In vitro experiments were analyzed using parametric statistics (ANOVA global test with Dunnett's/Sidak multiple comparison test as post-hoc tests as applicable and described in legend) and presented as the mean±SEM. All real time PCR's are relative semi quantitative RT-PCR's (hereby referred to as qRT-PCR) and are a combined quantitation of a minimum of 3 independent biological trials assayed in triplicate with biological replicates represented as individual scatter dots in the graphs or as indicated in legends. In all cases, statistical significance was set at a threshold of p<0.05. All statistical analyses were conducted with GraphPad Prism Software Ver. 9.0 and specific statistical test information described in figure legends.

[2] = test system: SOX2 promoter; assay: Chromatin immunoprecipitation (ChIP) at SOX2 promoter regions; format: cell-based, human; conditions: for SMAD3 occupancy at p1, p3, p4, p5, p6 (ChIP): 1 h treatment
Description: ChIP was carried out using a modified version of a previously described protocol (Medeiros et al., 2009). Cells were grown to 80% confluency in 150 mm culture dishes. Cells were fixed at room temperature in 1% Paraformaldehyde solution (dilute 8% PFA in serum free media to get 1%) and rocked for 10 minutes. 10×Glycine was added to the plate and allowed to sit for 5 minutes at room temperature. Cells were scraped down and cell suspension were transferred to a cold centrifuge tube for centrifugation at 720 RCF at 4° C. for 10 minutes. Cells were rinsed with 1X Phosphate buffer saline and centrifugation repeated. Cell pellet was next resuspended in lysis buffers described in (Medeiros et al., 2009) to obtain nuclei pellet. This was followed by chromatin sonication, using QSonica sonicator (model CL-188) for four cycles (30% amplitude for 15 secs ON and 30 secs OFF) to obtain DNA fragments with a length from 150 to 300 bp. 1/10th of the supernatant was stored as input control. ChIP was performed using Protein A magnetic beads (Dynabeads, Invitrogen #10001D) to couple […] ChIP-grade antibodies for SMAD1, SMAD3, H3K27me3, H3K4me3, or rabbit IgG antibody overnight at 4 °C. DNA was purified using the PureLink Quick PCR Purification kit (Thermo Fisher Cat #: K310001) and enrichment of DNA fragments analyzed via relative quantitative RT-PCR (qPCR) using ChIP primers (see Table 2) to specific locations. Negative and positive control regions were included in all analysis.

[3] = test system: 1-kb SOX2 promoter reporter; assay: pGL3-SOX2 promoter-reporter luciferase assay in HEK293 cells; format: cell-based, human
Description: HEK293 cells were transfected with the pGL3-SOX2 promoter-luciferase reporter plasmid construct and SV40-renilla for 24h. […] According to the manufacturer's instruction, cells were collected and lysed in […] passive lysis buffer. To measure luciferase activity, […] of lysate was added to […] of dual Luciferase Assay Reagent, and luminescence was quantitated using a luminometer (Biotek).

[4] = test system: HEYT30 cells; assay: Paclitaxel cell viability with BMP9 in HEYT30 (FIG. 10, 13A); format: cell-based; conditions: Homo sapiens, read-out: paclitaxel IC50 concentration
[5] = test system: HEY-T30 cells; assay: Flow cytometry, Annexin V / PI apoptosis; format: cell-based, human; conditions: 3D, 48 hours; 10 nM BMP9, 300 nM paclitaxel or combination
Description: 700,000 cells were seeded in 60 mm poly-hema coated culture dishes, followed by incubation with 300 nM paclitaxel and 10 nM BMP9 alone or in simultaneous combination for 48 hours. Cells were centrifuged and resuspended in 1×binding buffer, followed by incubation with Annexin V and PI according to the manufacturer's procedure manual. The stained cell suspension was added to FACS tubes containing 200 μl 1×binding buffer and measured by BD LSRFortessa flow cytometer. The data were analyzed using BD FACSDiva (Becton Dickinson, NJ, USA) software. Annexin V-positive and PI-negative cells were considered to be in the early apoptotic phase, Annexin V-negative and PI-positive cells were considered to be in the necrosis phase, cells having positive staining for both Annexin-V and PI were considered to undergo late apoptosis and cells negative for Annexin V and PI were considered to be live cells.

[6] = test system: HEYT30 cells; assay: CellTiter Glo 3D cell viability assay, paclitaxel with BMP9; conditions: read-out: paclitaxel IC50 concentration, 3D conditions
[7] = test system: SOX2 promoter methylation; assay: Methylation-specific qPCR of SOX2 promoter; format: cell-based, human; conditions: for SOX2 promoter methylation, inhibitor alone: 5 μM
Description: Genomic DNA was extracted, and bisulfite conversion was performed on 500 ng of gDNA using the MethylAmp DNA modification kit according to manufacturer's instructions. Relative quantitative RT-PCR (qPCR) was performed with methylation-specific and unmethylation-specific primers (see Table 3).

[8] = test system: OC cells (PA1, OVCA420, and OVCAR3); assay: Live-dead analysis of anchorage-independent spheroids, TGF-β1/activin A; format: cell-based, human; conditions: 1 nM TGFβ1, 10 nM activin, 24 hrs
Description: (§1) For Live/Dead analysis under anchorage independence, 1,000 cells were seeded in 96-well hydrogel-coated ultra-low attachment (ULA) plates (Corning #4515) for times indicated. Growth factor treatment was done under low serum 2.5% FBS condition (Cells were plated in 10% FBS to allow spheroid formation before beginning treatment). Cells were then stained with 2 μM Calcein-AM and 4 μM Ethidium-homodimer for 30 min before imaging. z-stacked images were obtained using the Zeiss LSM700 Confocal microscope (Microscopy and Flow Cytometry Core, University of South Carolina) and NIKON A1 Confocal microscope (UAB High Resolution Imaging Facility). Fluorescent quantification was performed using ImageJ Fiji software to calculate the Corrected Total Cell Fluorescent (CTCF)=Integrated Density−(Area of selected cell×Mean fluorescence of background readings) per spheroid.

[9] = test system: Phosphorylated SMAD1 (pSMAD1); assay: SMAD1 phosphorylation (Western blot); format: cell-based, human
[10] = test system: PA1 cells; assay: Live/Dead analysis under anchorage independence (anoikis), PA1 cells; format: cell-based, human; conditions: 10 nM for 24 hrs after 48 hours anchorage independence
Description: as §1

Molecule: CC(C)C[C@@H](C=O)NC(=O)[C@H](CC(C)C)NC(=O)[C@H](CC(C)C)NC(=O)OCc1ccccc1 [MG132] (Cbz-Leu-Leu-Leu-aldehyde)
effect on BMP's ability to repress SOX2 ([1]; PA1, 0.5 μM MG132 1 hour, then rhBMP2/9): No effect

SMAD3 occupancy at p1, p3, p4, p5, p6 (ChIP) [2]: occupied by SMAD3
Molecule: activin A: activin A, TGF-β family member
luciferase activity of SOX2 promoter reporter ([3]; 10 nM activin A, 24 hours): increased
SOX2 protein and mRNA expression [1]: increased

Molecule: CC(=O)O[C@H]1C(=O)[C@@]2(C)[C@H]([C@H](OC(=O)c3ccccc3)[C@]3(O)C[C@H](OC(=O)[C@H](O)[C@@H](NC(=O)c4ccccc4)c4ccccc4)C(C)=C1C3(C)C)[C@]1(OC(C)=O)CO[C@@H]1C[C@@H]2O [paclitaxel]
IC50 ([4]; 24-hour pretreatment 1 nM BMP9, then combination 48 hours): 90.8 nM
IC50 ([4]; 24-hour pretreatment 5 nM BMP9, then combination 48 hours): 22.6 nM
IC50 ([4]; 24-hour pretreatment 10 nM BMP9, then combination 48 hours): 4.1 nM
IC50 ([4]; 48 h, simultaneous 1 nM BMP9, 48 hours): 91.7 nM
IC50 ([4]; 48 h, simultaneous 5 nM BMP9, 48 hours): 89 nM
IC50 ([4]; 48 h, simultaneous 10 nM BMP9, 48 hours): 73 nM
IC50 ([4]; 48 h, untreated control (no BMP9), simultaneous series, 48 hours): 107 nM
IC50 ([4]; untreated control (no BMP9), 24-hour pretreatment series): 113 nM
apoptosis in cells [5]: 12.8%
IC50 ([6]; 24-hour pretreatment 5 nM BMP9): 286 nM
IC50 ([6]; 24-hour pretreatment 10 nM BMP9): 211 nM

Molecule: Nc1ncn([C@@H]2O[C@H](CO)[C@@H](O)[C@H]2O)c(=O)n1 [50-Aza, 50-azacytidine]
SOX2 mRNA downregulation by BMP9 ([1]; PA1, 5 μM with 10 nM rhBMP9): suppressed
SOX2 mRNA, inhibitor alone ([1]; SKOV3 cells, 5 μM): concomitant increase
BMP9-induced SOX2 transcriptional repression ([1]; SKOV3 cells, 5 μM with 10 nM rhBMP9): repressed
BMP9-induced SOX2 promoter methylation ([7]; PA1, 5 μM 48 h pretreatment, then rhBMP9 24 h): abrogated
SOX2 promoter methylation, inhibitor alone ([7]; PA1 cells): minimal effect
SOX2 promoter methylation, inhibitor alone ([7]; SKOV3 cells, 48 hours): suppressed SOX2 promoter methylation significantly

SMAD3 occupancy at p1, p3, p4, p5, p6 (ChIP) [2]: consistent SMAD3 enrichment
Molecule: TGF-β1: transforming growth factor β1 ligand
H3K4me3 at SMAD3 motifs p1, p3, p4, p5, p6 (ChIP) ([2]; PA1, 1-h TGF-β1): enrichment
luciferase activity of SOX2 promoter reporter ([3]; TGF-β1 400 pM, 24 h): increased
live/dead ratio of spheroids [8]: increased
SOX2 protein and mRNA expression [1]: increased

Molecule: c1cc(-c2cnn3cc(-c4ccc(OCCN5CCCCC5)cc4)cnc23)ccn1 [DM, Dorsomorphin]
recovery in SOX2 levels in the presence of BMP9 ([1]; PA1, 5 μM pretreatment 1 h, then rhBMP9 24 hours): 34.3%
recovery in SOX2 repression by BMP2 [1]: 23%

Molecule: CC[C@H](C)n1cc(C)c2c(C(=O)NCc3c(C)cc(C)[nH]c3=O)cc(-c3ccc(N4CCNCC4)nc3)cc21 [GSK126]
SOX2 repression by BMP9 ([1]; 5 μM GSK126, multiple cell lines): abrogated

Molecule: NC(=O)c1ccc(-c2nc(-c3ccc4c(c3)OCO4)c(-c3ccccn3)[nH]2)cc1 [SB431542]
TGF-β1-induced H3K4me3 enrichment (ChIP) ([2]; PA1, TGF-β1 + SB431542): abrogated
pSMAD1 in response to BMP2 and -9 ([9]; 5 μM inhibitor): no effects
TGF-β1-induced SOX2 increases ([1]; 5 μM SB431542 1 h, then 400 pM TGF-β1 24 h): suppressed
effect on SOX2 repression by BMP9 [1]: did not significantly alter
effect on SOX2 repression by BMP2 [1]: did not alter

BMP9-induced H3K27me3 occupancy on the SOX2 promoter (ChIP) ([2]; PA1, rhBMP9 + LDN193189): significantly reduced
Molecule: c1ccc2c(-c3cnn4cc(-c5ccc(N6CCNCC6)cc5)cnc34)ccnc2c1 [LDN193189]
BMP2- and BMP9-induced SMAD1/5 phosphorylation ([9]; 0.8 μM LDN193189, PA1 and OVCAR3): Full inhibition
increase of SOX2 protein levels at baseline in the absence of exogenous ligand ([1]; 0.8 μM LDN193189, PA1): 33
effect on SOX2 repression by BMP9 [1]: blocked
effect on SOX2 repression by BMP2 [1]: blocked

Molecule: COc1ccc(-c2cnc3c(-c4cccc5ncccc45)cnn3c2)cc1 [ML347]
BMP9-induced phosphorylation of SMAD1 ([9]; 3 μM ML347): completely suppressed
suppression of BMP2-induced SMAD1 phosphorylation ([9]; 3 μM ML347): 40%
baseline SOX2 levels in the absence of exogenous ligand ([1]; 3 μM ML347, PA1): increased
effect on SOX2 repression by BMP9 [1]: abrogated
recovery in SOX2 repression by BMP2 [1]: 72%

B1: BMP4: recombinant human BMP4, BMP ligand (protein, UniProt P12644 293-408, looked up)
Bone morphogenetic protein 4: SPKHHSQRARKKNKNCRRHSLYVDFSDVGWNDWIVAPPGYQAFYCHGDCPFPLADHLNSTNHAIVQTLVNSVNSSIPKACCVPTELSAISMLYLDEYDKVVLKNYQEMVVEGCGCR
decrease of live-to-dead cell ratio [10]: 1.93
SOX2 protein and RNA levels [1]: downregulation

B2: BMP10: recombinant human BMP10, highest sequence homology to BMP9 (protein, UniProt O95393 317-424, looked up)
Bone morphogenetic protein 10: NAKGNYCKRTPLYIDFKEIGWDSWIIAPPGYEAYECRGVCNYPLAEHLTPTKHAIIQALVHLKNSQKASKACCVPTKLEPISILYLDKGVVTYKFKYEGMAVSECGCR
activation of SMAD1/5 [9]: failed to activate
anoikis [10]: did not alter
SOX2 protein and RNA levels [1]: did not alter
